Reference: ChEMBL document CHEMBL5352409, “Design, synthesis, and pharmacological evaluation of 2-(1-(1,3,4-thiadiazol-2-yl)piperidin-4-yl)ethan-1-ol analogs as novel glutaminase 1 inhibitors” (Eur J Med Chem, 2022)
Activity calls are given as the source filed them. The rule behind the calls is not given here.

Tests used:
[1] = target: T1, Glutaminase liver isoform, mitochondrial (Homo sapiens, UniProt Q9UI32); assay: Inhibition of GLS2 (unknown origin)
T1 sequence (Q9UI32 whole entry): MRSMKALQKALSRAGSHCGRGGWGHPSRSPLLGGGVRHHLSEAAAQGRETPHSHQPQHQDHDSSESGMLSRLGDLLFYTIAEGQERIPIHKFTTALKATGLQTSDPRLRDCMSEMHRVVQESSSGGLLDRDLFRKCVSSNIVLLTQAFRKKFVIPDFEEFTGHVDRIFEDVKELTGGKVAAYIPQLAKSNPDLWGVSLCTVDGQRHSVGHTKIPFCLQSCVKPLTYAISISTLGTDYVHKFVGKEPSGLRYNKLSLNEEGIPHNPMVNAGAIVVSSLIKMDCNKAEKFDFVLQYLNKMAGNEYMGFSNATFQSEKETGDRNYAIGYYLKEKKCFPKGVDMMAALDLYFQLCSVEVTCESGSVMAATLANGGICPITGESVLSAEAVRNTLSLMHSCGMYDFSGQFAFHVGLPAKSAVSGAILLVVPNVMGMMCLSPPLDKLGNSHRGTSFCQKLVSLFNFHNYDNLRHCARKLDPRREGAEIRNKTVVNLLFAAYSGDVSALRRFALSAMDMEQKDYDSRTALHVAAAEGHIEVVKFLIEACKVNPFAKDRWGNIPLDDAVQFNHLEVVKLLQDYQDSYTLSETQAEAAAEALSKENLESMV

Homo sapiens = species: Homo sapiens; assay: Selectivity ratio of IC50 for GLS2 (unknown origin) to IC50 for GLS1 (unknown origin)
[2] = Terminal half life in rat at 3 mg/kg, iv; format: ADME, organism-based; conditions: in vivo, read-out: beta t1/2 (converted)
[3] = Clearance in rat at 3 mg/kg, iv; format: ADME, organism-based; conditions: in vivo
[4] = Clearance in rat at 3 mg/kg, po; format: ADME, organism-based; conditions: in vivo
[5] = Oral bioavailability in rat at 3 mg/kg; format: ADME, organism-based; conditions: in vivo
A549 [6] = assay: Induction of cell cycle arrest in human A549 cells assessed as accumulation of cells at G0/G1 phase at 800 nM incubated for 48 hrs by propidium iodide staining based flow cytometry analysis (Rvb=61.61%); format: functional
A549 [7] = assay: Induction of cell cycle arrest in human A549 cells assessed as accumulation of cells at G2/M phase at 100 nM incubated for 48 hrs by propidium iodide staining based flow cytometry analysis (Rvb=23.88%); format: functional
A549 [8] = assay: Induction of cell cycle arrest in human A549 cells assessed as accumulation of cells at G2/M phase at 200 nM incubated for 48 hrs by propidium iodide staining based flow cytometry analysis (Rvb=23.88%); format: functional
A549 [9] = assay: Induction of cell cycle arrest in human A549 cells assessed as accumulation of cells at S phase at 50 nM incubated for 48 hrs by propidium iodide staining based flow cytometry analysis (Rvb=14.51%); format: functional
A549 [10] = assay: Induction of cell cycle arrest in human A549 cells assessed as accumulation of cells at S phase at 100 nM incubated for 48 hrs by propidium iodide staining based flow cytometry analysis (Rvb=14.51%); format: functional
A549 [11] = assay: Induction of cell cycle arrest in human A549 cells assessed as accumulation of cells at S phase at 400 nM incubated for 48 hrs by propidium iodide staining based flow cytometry analysis (Rvb=14.51%); format: functional
HCT-116 [12] = assay: Induction of intracellular ROS production in human HCT-116 cells by DCFH-DA staining based fluorescence microscopic analysis; format: functional, cell-based; conditions: dose 1-10 µM
A549 [13] = assay: Induction of apoptosis in human A549 cells assessed as early apoptotic cells at 1 uM incubated for 48 hrs by annexin V-FITC and propidium iodide based flow cytometry analysis (Rvb =12.289%); format: functional
A549 [14] = assay: Induction of apoptosis in human A549 cells assessed as late apoptotic cells at 10 uM incubated for 48 hrs by annexin V-FITC and propidium iodide based flow cytometry analysis (Rvb =9.696%); format: functional
HCT-116 [15] = assay: Antitumor activity against human HCT-116 cells xenografted in mouse model assessed as reduction in tumor cells at 100 mg/kg administered via oral gavage for 28 days; format: functional, organism-based; conditions: time 28.0 day
HCT-116 [16] = assay: cells; conditions: Homo sapiens
in vitro = conditions: human, liver microsomes

- IC50 [1]: > 15000 nM
- Ratio IC50 (Homo sapiens): > 100
- half-life [2]: 9.9 h
- CL [3]: 102 mL/min/kg
- CL [4]: 557 mL/min/kg
- F [5]: 12.4%
- IC50 (HCT-116 [16]): 420 nM
- half-life (in vitro): > 2 h
SMILES: CCCCCCN1CCC(CNC(=O)c2cccc(COCCC3CCN(c4nnc(NC(=O)Cc5ccccc5)s4)CC3)c2)CC1
- Activity (A549 [6]): 68.55%
- Activity (A549 [7]): 17.3%
- Activity (A549 [8]): 19.72%
- Activity (A549 [9]): 13.17%
- Activity (A549 [10]): 17.76%
- Activity (A549 [11]): 13.76%
- Activity (HCT-116 [12]): Dose-Dependent Effect
- Activity (A549 [13]): 14.845%
- Activity (A549 [14]): 68.08%
- Activity (HCT-116 [15]): Active
